Test results reported in ChEMBL document CHEMBL5726417, “Therapeutic agent for pain” (2017).

These compounds were tested against 11-beta-hydroxysteroid dehydrogenase 1 (Rattus norvegicus, UniProt P16232) (assay: Inhibition Assay: The procedure for measuring the 11β-HSD1-inhibitory activity is as follows. The enzyme reaction and the measurement were carried out using a 384-well plate. The enzyme was prepared in accordance with Journal of Biological Chemistry, 2001, Vol. 276, p. 21343-21350. The reaction was carried out by adding a test compound at various concentrations to a reaction liquid consisting of a 5 mM phosphate buffer (pH 6.6), 200 nM cortisone, 40 μM reduced nicotinamide adenine dinucleotide phosphate (NADPH), and rat recombinant 11β-HSD1, followed by incubating at room temperature for one hour (10 μl/well). The test compound was prepared by dissolving in dimethyl sulfoxide (DMSO) such that a DMSO concentration reached 1% in the reaction liquid. After the enzyme reaction was completed, the enzyme inhibitory action was measured by detecting cortisol using a homogeneous time-resolved fluorescence (HTRF) method. Each of a d2-labeled cortisol containing 400 μM carbenoxolone and a cryptate-labeled cortisol antibody (CIS Bio International Co., Ltd.) was added at 5 μl/well, followed by incubating at room temperature for 2 hours, and then the fluorescence intensity was measured using a fluorophotometer (trade name: ARVO HTS 1420, Perkin Elmer/Wallac), and the enzyme inhibitory activity was calculated from the fluorescence intensity ratio of two wavelengths (665 nm/620 nm).The measurement results were calculated by averaging the values of 3 wells of the same condition. The ratio when DMSO was added instead of the test compound was taken as 0% and the ratio when 11β-HSD1 was not added was taken as 100%, thereby calculating the 50% inhibition concentration of the test compound as IC50 of the compound inhibitory activity.).
Chain of 11-beta-hydroxysteroid dehydrogenase 1 (P16232 whole entry): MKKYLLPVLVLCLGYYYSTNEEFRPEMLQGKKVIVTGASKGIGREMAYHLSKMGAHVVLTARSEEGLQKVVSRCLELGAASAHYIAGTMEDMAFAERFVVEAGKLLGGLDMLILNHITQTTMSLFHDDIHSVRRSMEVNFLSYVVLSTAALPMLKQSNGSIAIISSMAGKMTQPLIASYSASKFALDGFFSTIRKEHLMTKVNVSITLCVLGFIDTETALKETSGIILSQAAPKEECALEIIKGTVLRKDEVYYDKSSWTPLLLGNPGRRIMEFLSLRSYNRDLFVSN

In order of falling IC50:
1. Cn1c(-c2ccc(C(N)=O)cc2F)nnc1C(C)(C)Oc1c(F)cc(Cl)cc1F [CLOFUTRIBEN]  135 nM
2. CCn1c(-c2ccc(C(N)=O)cc2)nnc1C(C)(C)Oc1c(F)cc(Cl)cc1F  70 nM
3. Cn1c(-c2ccc(F)cc2Cl)nnc1C(C)(C)Oc1c(F)cc(F)cc1F  52 nM
4. CC(C)n1c(-c2ccc(C(N)=O)cc2F)nnc1C(C)(C)Oc1c(F)cc(F)cc1F  23 nM
